Data set [1] concerns mouse spleen cell. As to the kind of experiment: cells. The note with it: Mus musculus, 24 h, read-out: Interferon-inducing activity: Minimum effective concentration. Type of data set: cell-based.
Data set [2] has as its system IL-5 production. Put plainly: Inhibitory activity against Th2 cytokine produced from sensitized spleen cells: IL-5. It is filed as cell-based, mouse. The settings on record: Mus musculus, 72 h, OVA-sensitized BALB/c spleen cells, 3 days; for activity at 0.001 µM: concentration 1 nM; for activity at 0.001 µM / activity at 0.01 µM / activity at 0.1 µM: read-out: Inhibitory activity against IL-5 production; for activity at 0.01 µM: concentration 10 nM; for activity at 0.1 µM: concentration 100 nM; for activity at 0.0001 µM: concentration 0.1 nM. As for the experimental part: (§1) A 7-week-old BALB/c mouse was immunized intraperitoneally with aluminum hydroxide gel (4 mg, 100 μl) having 10 μg of ovalbumin adsorbed thereon, and it was subjected to additional immunization with the same agent 14 days later. Seven days thereafter, spleen was taken out, and suspended in RPMI-1640 comprising inactivated fetal bovine serum (10%), 2-mercaptoethanol ([…]), penicillin G (100 U/ml), and streptomycin (100 μg/ml). Thus, a splenic cell suspension was prepared. Ovalbumin (0.5 mg/ml) and a test compound were added to a splenic cell suspension (5×10^6 cell/200 μl/well), and the resultant was cultured at 37° C. in the presence of 5% CO2 for 3 days. The cytokine level in the culture supernatant was quantified by ELISA. IFN-γ and IL-4 were assayed using a kit available from Amersham, and IL-5 was assayed using a kit available from Endogen.

Data set [3] has as its system IL-4 production. Put plainly: Inhibitory activity against Th2 cytokine produced from sensitized spleen cells: IL-4. It is filed as cell-based, mouse. The note with it: Mus musculus, 72 h, OVA-sensitized BALB/c spleen cells, 3 days; for activity at 0.001 µM: concentration 1 nM; for activity at 0.001 µM / activity at 0.01 µM / activity at 0.1 µM: read-out: Inhibitory activity against IL-4 production; for activity at 0.01 µM: concentration 10 nM; for activity at 0.1 µM: concentration 100 nM; for activity at 0.0001 µM: concentration 0.1 nM. As for the experimental part: as §1

The nature of data set [4]: Solubility in citric acid/disodium phosphate buffers. The settings on record: citric acid/disodium phosphate buffer, thermodynamic from solid.
Protocol: 5.53% citric acid (monohydrate) and 1.75% disodium phosphate (anhydrous) were mixed together to prepare buffers (pH 2.5, 5.5, 7.4). A compound was added thereto, the mixture was stirred in a vortex mixer and subjected to ultrasonication for 30 minutes. Thereafter, the resultant was stirred in a vortex mixer again and then centrifuged at 15,000 rpm for 20 minutes. The levels of the compounds in the supernatants were then quantified by HPLC.
Data set [5] has as its system Balb/c male mouse. Put plainly: Interferon-inducing activity in mouse (in vivo), serum interferon titer after oral dosing.
Data set [6] relates to human peripheral blood mononuclear cells (PBMC). Put plainly: Interferon-inducing activity in human peripheral blood mononuclear cells (PBMC), IFN-α ELISA.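 Also: IFN-α in pg/ml with a 1.25 pg/ml detection limit.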 It is filed as cell-based. The settings on record: 24 h. As for the experimental part:
Peripheral bloods were sampled from 5 healthy volunteers using a syringe containing heparin, and peripheral blood mononuclear cells (PBMC) were prepared by density gradient centrifugation utilizing the Lymphoprep™ (NYCOMED PHARMA AS). PBMCs were washed twice in serum-free RPMI 1640 medium and adjusted at 1×10^6 cells/ml in RPMI 1640 medium comprising 10% fetal bovine serum. The product was cultured in the presence of a test compound dissolved in dimethyl sulfoxide (final concentration: 0.1%) in an incubator in the presence of 5% CO^2 at 37° C. for 24 hours. As a control, 0.1% dimethyl sulfoxide containing no test compound was used. The culture supernatant was aseptically collected by filtration. Thereafter, the supernatant was cryopreserved at −20° C. or lower until it was subjected to the assay for IFN-inducing activity. Human IFN-α in the culture supernatant was quantified using a highly sensitive ELISA system (Amersham).
On the technique in general: ELISA stands for enzyme-linked immunosorbent assay.

[7] abbreviates: dosage 0.03 mg/kg oral, serum 2 h after dosing, Balb/c mouse.
The mark [8] stands for this setting: dosage 0.1 mg/kg oral, serum 2 h after dosing, Balb/c mouse.
Setting [9] is: dosage 0.3 mg/kg oral, serum 2 h after dosing, Balb/c mouse.

In brackets after ≈: the same amount, converted by molar mass. Bounds are passed on as bounds.

By solubility is commonly meant the concentration that dissolves in the medium under given conditions. A higher solubility goes with a readily soluble substance.

On to `CCCCNc1nc(N)c2nc(O)n(Cc3ccccn3)c2n1` [Example 20, 2-Butylamino-8-hydroxy-9-(2-pyridylmethyl)adenine], for which the minimal effective concentration in data set [1] came to 0.03 µM. Also, in data set [2], the activity at 0.001 µM turned out to be 106%, the activity at 0.01 µM turned out to be 71% and the activity at 0.1 µM was 19%. In data set [3], the activity at 0.001 µM was 106%, the activity at 0.01 µM came to 23% and the activity at 0.1 µM amounted to 2%. Also, the solubility at 30 min in data set [4] (pH 2.5, aqueous buffer) was determined as 8810 µg/mL (≈ 28100 µM).

As for `CCCCNc1nc(N)c2nc(O)n(Cc3cccnc3)c2n1` [Example 21, 2-Butylamino-8-hydroxy-9-(3-pyridylmethyl)adenine], the minimal effective concentration in data set [1] is 0.003 µM. The Interferon-inducing activity in data set [5] (po, 0.03 mg/kg, 2 h) was determined as 15 ± 8 U/ml; in data set [5] (po, 0.1 mg/kg, 2 h), 290 ± 134 U/ml; in data set [5] (po, 0.3 mg/kg, 2 h), 571 ± 164 U/ml. For the same compound, the activity at 0.001 µM worked out at 97% in data set [2] and 53% in data set [3]. Besides, the activity at 0.01 µM in data set [2] worked out at 23%; in data set [3], 1%. The activity at 0.1 µM in data set [2] is 15%; in data set [3] it was less than 1%. The solubility at 30 min was found to be 15000 µg/mL (≈ 47900 µM) in data set [4] (pH 2.5, aqueous buffer); 45 µg/mL (≈ 144 µM) in data set [4] (pH 5.5, aqueous buffer); 64 µg/mL (≈ 204 µM) in data set [4] (pH 7.4, aqueous buffer).

Take `CCCCNc1nc(N)c2nc(O)n(Cc3ccncc3)c2n1` [Example 22, 2-Butylamino-8-hydroxy-9-(4-pyridylmethyl)adenine]: in data set [1], the minimal effective concentration turned out to be 0.01 µM. The Interferon-inducing activity is given as 21 ± 9 U/ml in data set [5] (po, 0.1 mg/kg, 2 h) and 332 ± 83 U/ml in data set [5] (po, 0.3 mg/kg, 2 h). For the same compound, the values for the activity at 0.001 µM in data set [2] and in data set [3] were 115% and 88%, respectively. In addition, the results for the activity at 0.01 µM in data set [2] and in data set [3] were 50% and 9%, respectively. Moreover, the activity at 0.1 µM was determined as 18% in data set [2] and 1% in data set [3]. The solubility at 30 min in data set [4] (pH 2.5, aqueous buffer) was more than 80000 µg/mL; in data set [4] (pH 5.5, aqueous buffer), 73 µg/mL (≈ 233 µM); in data set [4] (pH 7.4, aqueous buffer), 16 µg/mL (≈ 51.1 µM).

For `CCCCOc1nc(N)c2nc(O)n(Cc3ccc(OC)nc3)c2n1` [Example 2, 2-Butoxy-8-hydroxy-9-(6-methoxy-3-pyridylmethyl)adenine], the minimal effective concentration in data set [1] was 0.001 µM. Moreover, the Interferon-inducing activity in data set [5] (po, 0.01 mg/kg, 2 h) is listed as 25 ± 17 U/ml; in data set [5] (po, 0.03 mg/kg, 2 h), 388 ± 87 U/ml; in data set [5] (po, 0.1 mg/kg, 2 h), 1211 ± 263 U/ml; in data set [5] (po, 0.3 mg/kg, 2 h), 2559 ± 495 U/ml. Also, the activity at 0.0001 µM in data set [2] amounted to 98%; in data set [3] it was 96%. In addition, the results for the activity at 0.001 µM in data set [2] and in data set [3] were 37% and 4%, respectively. The activity at 0.01 µM in data set [2] was 14%; in data set [3], less than 1%. The results for the activity at 0.1 µM in data set [2] and in data set [3] were 12% and less than 1%, respectively.

With `CCCCOc1nc(N)c2nc(O)n(Cc3ccccc3)c2n1` [Reference Compound 2, 9-benzyl-2-butoxy-8-hydroxyadenine, reference compound], the minimal effective concentration in data set [1] is 0.001 µM. Moreover, the Interferon-inducing activity in data set [5] (po, 0.03 mg/kg, 2 h) came to 60 ± 40 U/ml; in data set [5] (po, 0.1 mg/kg, 2 h), 186 ± 42 U/ml; in data set [5] (po, 0.3 mg/kg, 2 h), 317 ± 160 U/ml. The figures for the activity at 0.0001 µM in data set [2] and in data set [3] were 99% and 107%, respectively. Besides, the values for the activity at 0.001 µM in data set [2] and in data set [3] were 79% and 48%, respectively. Besides, the activity at 0.01 µM was 16% in data set [2] and 1% in data set [3]. In addition, the results for the activity at 0.1 µM in data set [2] and in data set [3] were 11% and less than 1%, respectively. Also, the “Interferon-inducing activity (human IFN-α in culture supernatant)” value was “— ((−) indicates a detection limit (1.25 pg/ml) or lower)” in data set [6] (concentration 1 nM), 7 pg/mL in data set [6] (concentration 3 nM), 23 ± 22 pg/mL in data set [6] (concentration 10 nM) and 64 ± 40 pg/mL in data set [6] (concentration 30 nM). Further, the solubility at 30 min in data set [4] (pH 2.5, aqueous buffer) is 2 µg/mL (≈ 6.38 µM); in data set [4] (pH 5.5, aqueous buffer), less than 1 µg/mL; in data set [4] (pH 7.4, aqueous buffer) it was less than 1 µg/mL.

As to `CCCCNc1nc(N)c2nc(O)n(Cc3cccnc3C)c2n1` [Example 28, 2-Butylamino-8-hydroxy-9-(2-methyl-3-pyridylmethyl)adenine], in data set [1], the minimal effective concentration came out at 0.01 µM. The Interferon-inducing activity in data set [5] (po, 0.1 mg/kg, 2 h) is 186 ± 62 U/ml; in data set [5] (po, 0.3 mg/kg, 2 h), 1462 ± 260 U/ml. The solubility at 30 min is more than 1000 µg/mL in data set [4] (pH 2.5, aqueous buffer); 8 µg/mL (≈ 24.4 µM) in data set [4] (pH 5.5, aqueous buffer); 4 µg/mL (≈ 12.2 µM) in data set [4] (pH 7.4, aqueous buffer).

On to `CCCCOc1nc(N)c2nc(O)n(Cc3ccc(Cl)nc3)c2n1` [Example 1, 2-Butoxy-9-(6-chloro-3-pyridylmethyl)-8-hydroxyadenine], for which the minimal effective concentration in data set [1] came to 0.001 µM. The results for the Interferon-inducing activity in data set [5] (setting [7]), in data set [5] (setting [8]) and in data set [5] (setting [9]) were 123 ± 87 U/ml, 322 ± 95 U/ml and 623 ± 32 U/ml, respectively. Also, the results for the activity at 0.0001 µM in data set [2] and in data set [3] were 116% and 98%, respectively. Further, the activity at 0.001 µM in data set [2] was found to be 41%; in data set [3] it was 7%. Also, the figures for the activity at 0.01 µM in data set [2] and in data set [3] were 16% and 2%, respectively. In addition, the activity at 0.1 µM was 15% in data set [2] and less than 1% in data set [3].

For `CCCCNc1nc(N)c2nc(O)n(Cc3ccccc3)c2n1` [Reference Compound 1, 9-Benzyl-2-butylamino-8-hydroxyadenine, reference compound], in data set [1], the minimal effective concentration stood at 0.1 µM. In addition, the Interferon-inducing activity in data set [5] (po, 0.1 mg/kg, 2 h) is on record as 55 ± 25 U/ml; in data set [5] (po, 0.3 mg/kg, 2 h), 275 ± 165 U/ml. Further, the activity at 0.01 µM stood at 92% in data set [2] and 109% in data set [3]. For the same compound, the results for the activity at 0.1 µM in data set [2] and in data set [3] were 69% and 24%, respectively. Also, the solubility at 30 min in data set [4] (pH 2.5, aqueous buffer) is 26 µg/mL (≈ 83.2 µM); in data set [4] (pH 5.5, aqueous buffer), less than 1 µg/mL; in data set [4] (pH 7.4, aqueous buffer), less than 1 µg/mL.

With `CCCCOc1nc(N)c2nc(O)n(Cc3ccc(N(C)C)nc3)c2n1` [Example 16, 2-Butoxy-9-(6-dimethylamino-3-pyridylmethyl)-8-hydroxyadenine], the minimal effective concentration in data set [1] turned out to be 0.001 µM. Besides, the Interferon-inducing activity in data set [5] (po, 0.1 mg/kg, 2 h) is listed as 251 ± 46 U/ml; in data set [5] (po, 0.3 mg/kg, 2 h), 716 ± 155 U/ml. This compound also yielded a solubility at 30 min in data set [4] (pH 2.5, aqueous buffer) of 293 µg/mL (≈ 820 µM).

For the compound `CCCCOc1nc(N)c2nc(O)n(Cc3ccc(C)nc3)c2n1` [Example 25, 2-Butoxy-8-hydroxy-9-(6-methyl-3-pyridylmethyl)adenine], the minimal effective concentration in data set [1] was determined as 0.001 µM. For the same compound, the Interferon-inducing activity in data set [5] (dosage 0.01 mg/kg oral, serum 2 h after dosing, Balb/c mouse) amounted to 65 ± 52 U/ml; in data set [5] (setting [7]), 151 ± 29 U/ml; in data set [5] (setting [8]), 753 ± 140 U/ml; in data set [5] (setting [9]) it was 721 ± 299 U/ml. The activity at 0.0001 µM is 102% in data set [2] and 86% in data set [3]. Further, the activity at 0.001 µM in data set [2] was found to be 31%; in data set [3] it was 2%. Further, the activity at 0.01 µM in data set [2] was 13%; in data set [3], less than 1%. Also, the activity at 0.1 µM in data set [2] was 13%; in data set [3], less than 1%. In addition, the “Interferon-inducing activity (human IFN-α in culture supernatant)” value in data set [6] (concentration 0.3 nM) was 7 ± 3 pg/mL; in data set [6] (concentration 1 nM) it was 28 ± 24 pg/mL; in data set [6] (concentration 3 nM), 46 ± 34 pg/mL. The solubility at 30 min in data set [4] (pH 2.5, aqueous buffer) was more than 1000 µg/mL; in data set [4] (pH 5.5, aqueous buffer) it was 5 µg/mL (≈ 15.2 µM); in data set [4] (pH 7.4, aqueous buffer), 3 µg/mL (≈ 9.14 µM).

These data come from US7521454B2 (Dainippon Sumitomo Pharma Co., Ltd., priority 2001, dated 2009).
